The results in this text go back to BindingDB's records for doi:10.1021/jm011128+ (2002).

For test [1], the target named is Thymidine kinase 2, mitochondrial (Homo sapiens) (UniProt O00142). As to the kind of experiment: Inhibitory effect against phosphorylation of [methyl-3H]dThd by Thymidine Kinase 2 (TK-2).
Test [2] has as its target Thymidine kinase (Human herpesvirus 1). Description: Compound was evaluated for inhibitory effect against phosphorylation of [methyl-3H]dThd by HSV-1 Thymidine kinase.
For test [3] the target is unchanged. As to the kind of experiment: Inhibitory activity against HSV-1 Thymidine kinase in OST-TK-/HSV-1 TK+ cell line in combination with gancicclovir.
The target is the same in test [4]. Description: Inhibitory activity against HSV-1 Thymidine kinase in OST-TK-/HSV-1 TK+ cell line in combination with BVAraU.

SMILES strings stand for the structures.

Chain of Thymidine kinase 2, mitochondrial (Homo sapiens) (O00142 whole entry, looked up): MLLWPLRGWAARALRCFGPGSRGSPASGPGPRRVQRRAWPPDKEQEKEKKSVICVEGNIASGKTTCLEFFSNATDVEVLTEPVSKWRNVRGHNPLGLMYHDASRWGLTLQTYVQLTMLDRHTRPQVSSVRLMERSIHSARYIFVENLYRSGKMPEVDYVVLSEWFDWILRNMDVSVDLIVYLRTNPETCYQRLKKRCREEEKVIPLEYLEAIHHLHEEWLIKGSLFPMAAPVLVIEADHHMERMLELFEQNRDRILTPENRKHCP

In the case of `Cc1cn(C/C=C\COCc2ccccc2)c(=O)[nH]c1=O` [1-(4-Benzyloxy-but-2-enyl)-5-methyl-1H-pyrimidine-2,4-dione], in test [1], the IC50 was found to be 22 µM.

In test [2], `COc1ccc(C(OCC2OC(n3cc(C)c(=O)[nH]c3=O)CC2O)(c2ccccc2)c2ccc(OC)cc2)cc1` (stereo not drawn) [1-{5-[Bis-(4-methoxy-phenyl)-phenyl-methoxymethyl]-4-hydroxy-tetrahydro-furan-2-yl}-5-methyl-1H-pyrimidine-2,4-dione] gave an IC50 of 14 µM.

As for `Cc1cn(C/C=C\COC(=O)C(C)(C)C)c(=O)[nH]c1=O` [2,2-Dimethyl-propionic acid 4-(5-methyl-2,4-dioxo-3,4-dihydro-2H-pyrimidin-1-yl)-but-2-enyl ester], in test [1], half-maximal inhibition (IC50) was put at 40 µM.

Turning to `Cc1cn(Cc2ccccc2COC(c2ccccc2)(c2ccccc2)c2ccccc2)c(=O)[nH]c1=O` [5-Methyl-1-(2-trityloxymethyl-benzyl)-1H-pyrimidine-2,4-dione], the IC50 was determined as 0.002 µM in test [3] and 0.008 µM in test [4].

`Cc1cn(CC#CCOC(c2ccccc2)(c2ccccc2)c2ccccc2)c(=O)[nH]c1=O` [5-Methyl-1-(4-trityloxy-but-2-ynyl)-1H-pyrimidine-2,4-dione] yielded an IC50 in test [2] of 3.1 µM.

`Cc1cn(C/C=C\COC(=O)c2ccccc2)c(=O)[nH]c1=O` [Benzoic acid 4-(5-methyl-2,4-dioxo-3,4-dihydro-2H-pyrimidin-1-yl)-but-2-enyl ester] had an IC50 in test [1] of 30 µM.

As for `Cc1cn(C/C=C\COC(=O)C(c2ccccc2)c2ccccc2)c(=O)[nH]c1=O` [Diphenyl-acetic acid 4-(5-methyl-2,4-dioxo-3,4-dihydro-2H-pyrimidin-1-yl)-but-2-enyl ester], the IC50 in test [1] was found to be 4.6 µM.

Broadly, the IC50 is the concentration that inhibits the measured activity by half.
